One data set concerns S. aureus (USA300). The data set is classed as cell-based, Staphylococcus aureus. Particulars: for MBC: USA300; for MIC: USA300, 16 h. Put shortly: (§1)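 MIC in Mueller-Hinton broth with 1 × 10^6 CFU/mL bacteria, overnight cultures grown first in LB (E. coli, P. aeruginosa, S. aureus) or Todd-Hewitt (S. pyogenes); growth read as OD 600. Library members screened at half the parent peptide MIC; MBC as lowest concentration giving no colonies after plating MIC wells, 37°C overnight.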

The test system of another data set is sheep erythrocytes. Type of data set: cell-based. Particulars: red cells of sheep, 1 h. On the procedure: To determine if peptide variants were hemolytic, fresh defibrinated whole sheep blood (Hardy Diagnostics) was washed three times in cold PBS, and washed blood was diluted 1:25 in PBS. Treatments were applied at a 1:10 ratio of sample:blood, where the sample was either 10% Triton, PBS, or a specific peptide concentration corresponding to concentrations used in the MIC assays. Treatments were incubated with the blood for 1 h at 37°C. Following incubation, samples were centrifuged at […] for 10 min at 4°C, and the absorbance of the supernatants at 450 nm was measured on the Synergy H1 Microplate Reader to measure the release of hemoglobin. Percent hemolysis was quantified by normalizing to the negative and positive controls.

In a further data set the test system is E. coli (BL21). The data set is classed as cell-based, Escherichia coli. Particulars: for MBC: BL21. Put shortly: as §1
Another data set concerns S. pyogenes (M1). Type of data set: cell-based, Streptococcus pyogenes. Particulars: for MBC: M1; for MIC: M1, 16 h. Put shortly: as §1
The test system of the next data set is P. aeruginosa (PAO1). Type of data set: cell-based, Pseudomonas aeruginosa. Particulars: for MBC: PAO1; for MIC: PAO1, 16 h. The method, boiled down: as §1

Read-outs that look alike come from different tables or passages of the source. Residues, ends and D or L forms follow the SMILES beside them. Where only a bound is given, the exact number is not on record here.

As usually defined, the MBC is the smallest concentration meeting the test's criterion for killing. The term MIC denotes the least concentration at which growth counts as inhibited. Consider `CC[C@H](C)[C@H](NC(=O)[C@H](Cc1ccccc1)NC(=O)[C@H](C)NC(=O)[C@H](CCCCN)NC(=O)[C@H](CCCCN)NC(=O)CNC(=O)[C@H](CCCNC(=N)N)NC(=O)[C@H](CCCCN)NC(=O)[C@H](CCCNC(=N)N)NC(=O)[C@H](CC(C)C)NC(=O)[C@H](CCC(=O)O)NC(=O)[C@H](CCC(=O)O)NC(=O)[C@H](CCCCN)NC(=O)[C@H](CC(C)C)NC(=O)[C@H](Cc1ccc(O)cc1)NC(=O)[C@H](CC(C)C)NC(=O)[C@@H](NC(=O)[C@H](CC(C)C)NC(=O)[C@H](C)NC(=O)[C@H](CCC(N)=O)NC(=O)[C@H](CCCNC(=N)N)NC(=O)CNC(=O)[C@H](C)N)[C@@H](C)O)C(=O)N[C@@H](Cc1c[nH]c2ccccc12)C(=O)N[C@@H](Cc1c[nH]c2ccccc12)C(=O)O` [Syn-xiamencin-57] (H-AGRQALTLYLKEELRKRGKKAFIWW-OH; N-terminus and C-terminus assumed), for which the MBC in the data set on S. aureus (USA300) was 32 µM; in the data set with E. coli (BL21), 16 µM; in the data set on S. pyogenes (M1) it was 8 µM; in the data set with P. aeruginosa (PAO1), over 128 µM. Moreover, the MIC in the data set with S. aureus (USA300) was 16 µM; in the data set with E. coli (BL21) (BL21, 16 h) it was 16 µM; in the data set on S. pyogenes (M1), 4 µM; with P. aeruginosa (PAO1), over 128 µM. Besides, the “Percent Hemolysis” value in the data set on sheep erythrocytes came to 17.0%.
As to `CC[C@H](C)[C@H](NC(=O)[C@H](CCCNC(=N)N)NC(=O)[C@H](CC(N)=O)NC(=O)[C@@H](NC(=O)CNC(=O)[C@H](C)N)[C@@H](C)O)C(=O)N[C@@H](C)C(=O)N[C@@H](CCCCN)C(=O)N[C@@H](CCC(=O)O)C(=O)N[C@@H](CC(C)C)C(=O)N[C@@H](CCCNC(=N)N)C(=O)N[C@@H](CCCNC(=N)N)C(=O)N[C@@H](Cc1ccc(O)cc1)C(=O)N[C@H](C(=O)N[C@@H](CCCNC(=N)N)C(=O)N[C@@H](CCCCN)C(=O)N[C@H](C(=O)NCC(=O)N[C@@H](CCCNC(=N)N)C(=O)N[C@H](C(=O)N[C@@H](CCCCN)C(=O)N[C@@H](CCCNC(=N)N)C(=O)N[C@@H](CCCCN)C(=O)N[C@@H](C)C(=O)N[C@@H](Cc1c[nH]c2ccccc12)C(=O)O)[C@@H](C)CC)C(C)C)[C@@H](C)CC` [Syn-sordellicin-80] (H-AGTNRIAKELRRYIRKVGRIKRKAW-OH; N-terminus and C-terminus assumed), the minimal bactericidal concentration (MBC) in the data set with S. aureus (USA300) was 64 µM; with E. coli (BL21), 0.5 µM; in the data set on S. pyogenes (M1), 2 µM; with P. aeruginosa (PAO1), 16 µM. For the same compound, the MIC in the data set with S. aureus (USA300) was found to be 64 µM; with E. coli (BL21) (E. coli BL21), 0.25 µM; in the data set with S. pyogenes (M1), 2 µM; in the data set with P. aeruginosa (PAO1), 16 µM. The “Percent Hemolysis” value in the data set with sheep erythrocytes is 11.3%.
On to `CC[C@H](C)[C@H](NC(=O)[C@H](CCC(=O)O)NC(=O)[C@H](CCCNC(=N)N)NC(=O)[C@H](CCCNC(=N)N)NC(=O)[C@H](CC(C)C)NC(=O)[C@H](Cc1ccc(O)cc1)NC(=O)[C@H](CCCCN)NC(=O)[C@H](C)NC(=O)[C@@H](NC(=O)[C@@H](NC(=O)[C@H](CCC(N)=O)NC(=O)[C@H](CCCNC(=N)N)NC(=O)[C@H](Cc1c[nH]c2ccccc12)NC(=O)[C@H](C)N)[C@@H](C)O)[C@@H](C)CC)C(=O)N[C@@H](CCCNC(=N)N)C(=O)N[C@@H](CCCCN)C(=O)N[C@@H](CCCNC(=N)N)C(=O)NCC(=O)N[C@@H](CCCNC(=N)N)C(=O)N[C@@H](CCCCN)C(=O)N[C@@H](C)C(=O)N[C@H](C(=O)N[C@H](C(=O)N[C@@H](C)C(=O)N[C@@H](Cc1c[nH]c2ccccc12)C(=O)O)[C@@H](C)CC)C(C)C` [Syn-sordellicin-18] (H-AWRQTIAKYLRREIRKRGRKAVIAW-OH; N-terminus and C-terminus assumed), for which the MBC was 32 µM with S. aureus (USA300), 1 µM in the data set on E. coli (BL21), 4 µM in the data set with S. pyogenes (M1) and 8 µM in the data set with P. aeruginosa (PAO1). The MIC with S. aureus (USA300) worked out at 32 µM; in the data set on E. coli (BL21) (BL21, 16 h), 1 µM; in the data set with S. pyogenes (M1), 4 µM; with P. aeruginosa (PAO1), 4 µM. Moreover, in the data set with sheep erythrocytes, the “Percent Hemolysis” value was 14.1%.

The record behind these values is article PMC7689250, “Synthetic Peptide Libraries Designed From a Minimal Alpha-Helical Domain of AS-48-Bacteriocin Homologs Exhibit Potent Antibacterial Activity” (Frontiers in Microbiology, 2020).
